Experimental data published in US9315859B2, “DDAO compounds as fluorescent reference standards” (LIFE TECHNOLOGIES CORPORATION, priority 2010, dated 2016).

How the values were obtained:
Type in all cases: physicochemical
[1] = Normalized fluorescent emission as a function of temperature; settings: signals normalized to the 94° C. data point; compared with 6-FAM and ROX
Procedure: FIG. 6 depicts a graph of normalized fluorescent emission as a traction of temperature for Sulfo-DDAO in comparison to a reporter dye, 6-FAM, as well as a reference dye, ROX. Given the difference in brightness of the dyes shown, each data point for each curve was adjusted using an internal reference point taken from the 94° C. data point for that data set. In that regard, the fluorescence signals are normalized to give equal intensities at 94 C so that their relative changes with temperature can be easily compared. […] This attribute may be useful when, for example, dye calibration they be one at a different temperature from a run temperature, or could be useful for normalizing experimental variations as previously discussed.

[2] = Stability of reference dye incubated in TaqMan Universal PCR Master Mix, judged by Ct values; settings: room temperature in TaqMan Universal PCR Master Mix, 1 day to 4 weeks; consistent Ct values
Procedure: FIG. 11 depicts the stability of Sulfo-DDAO in a master mix, and incubated with various additional additives. Sulfo-DDAO was incubated in TaqMan® Universal PCR Master Mix at room temperature for 1 day, 1 week, 2 weeks, or 4 weeks. At each designated time point, fixed quantities of various, different target polynucleotides and various dye-labeled TaqMan® probes, were added. The target/probe mixtures were PCR amplified in a 96 well plate and the signals recorded after each amplification cycle to generate an amplification count from which a Ct value was determined for each target/probe mixture, using Sulfo-DDAO as a reference dye. FIG. 11 is a graph showing the results of that experiment, with the Ct values plotted for each time point. The Sulfo-DDAO signal was stable at room temperature in TaqMan® Universal PCR Master Mix for up to 4 weeks, as evidenced by the consistent Ct values obtained at different incubation times for the different target/probe mixtures, using Sulfa-DDAO as a reference dye.

[3] = Resilience to harsh oxidation: free dye with benzoyl peroxide, fluorescence decay; settings: about 1 μM free dye in Tris-EDTA buffer/MeOH, 5 μl 0.5M benzoyl peroxide in acetonitrile per 1 ml, read at 5 minute intervals, compared with ROX
Procedure: Regarding chemical stability, DDAO congeners appear to have resilience under various conditions, such as oxidation, photo-degradation, and the like. For example, regarding resilience to harsh oxidation, DDAO, Sulfo-DDAO, and ROX were each suspended as free dyes in a solution of 1.4 of Tris-EDTA buffer (1× stock concentration) in MeOH at a concentration of approximately 1 μM. Five μl of 0.5M benzoyl peroxide in acetonitrile was added to 1 ml of the dye composition in a fluorimeter cuvette. Fluorescence emission intensity was measured at each dye's emission maximum immediately, and then at 5 minute intervals. A first-order exponential curve was fit to the data to calculate the decay rate for each dye. FIG. 7 is a graph showing the results of that experiment. […] As such, the reference dyes of formula (I) can be used in assays in which the assay components might come in contact with oxidants.

Row | stability of fluorescence emission across temperature [1] | stability of reference dye signal in master mix [2] | resilience to oxidation (fluorescence emission decay) [3] | Compound
1 | fairly stable | stable | show resilience to oxidation | CC1(C)C2=C(Cl)C(=O)C(Cl)=CC2=Nc2cc(S(=O)(=O)O)c(O)cc21 [Sulfo-DDAO, 6,8-dichloro-2-hydroxy-9,9-dimethyl-7-oxo-7,9-dihydroacridine-3-sulfonic acid]
2 |  |  | show resilience to oxidation | CC1(C)C2=C(Cl)C(=O)C(Cl)=CC2=Nc2ccc(O)cc21 [DDAO, 1,3-dichloro-7-hydroxy-9,9-dimethylacridin-2(9H)-one]
